Test results reported in patent publication US10093678B2, “Azaspiro derivatives as TRPM8 antagonists” (RaQualia Pharma Inc., priority 2014, dated 2018).
Structures can show the parent of a compound that is named as a salt.

Target: T1, human TRPM8 (Homo sapiens, UniProt Q7Z2W7)
T1 construct: expressed in transfected cells; host or cells: HEK293
Assay: Menthol-induced Ca2+ influx in HEK293 cells stably expressing human TRPM8
Format: cell-based
Conditions: 30 microM menthol-induced Ca2+ influx, read-out: IC50 against TRPM8
Protocol: Measurement of the Menthol-Induced Ca^2+ Influx in HEK293 Cells Stably Expressing Human TRPM8
A cell-based Ca^2+ influx assay using HEK293 cells stably expressing human TRPM8 is used to identify the activity of compounds.
HEK293 cells stably expressing human TRPM8 are grown in T175 flasks at 37° C. in a 5% CO2 humidified incubator to about 80% confluence. Media composition consists of Dulbecco's Modified Eagle Medium (high glucose), 10% fetal calf serum (FCS), 100 units/mLPenicillin, 100 microg/mL Streptomycin and 600 microg/mL Geneticine. At 24 hours prior to assay, cells are seeded in poly-D-lysine coated 384-well plates (BD FALCON) at a density of 30,000 cells per well in culture medium and grown overnight in 5% CO2 at 37° C. On the assay day, growth media is removed and cells are loaded with 0.5 microM Fluo4-AM (Molecular Probes) and 0.005% Pluronic F-127 dissolved in assay buffer (Hank's balanced salt solution (HBSS), 19.4 mM HEPES pH7.4, 2.5 mM Probenecid) for 1 hour at room temperature. After washing with assay buffer, the cells are preincubated with various concentrations of the compounds for 5 min. The changes in intracellular calcium concentration by addition of 30 microM menthol are monitored by the cell imaging technology by Hamamatsu Photonics Functional Drug Screening System (FDSS).
The IC50 values for compounds of the present invention are determined from 11-point dose-response studies. Curves are generated using the average of duplicate wells for each data point. Finally, the IC50 values are calculated with the best-fit dose curve determined by XLfit (ID Business Solutions Ltd.).

T1 sequence (Q7Z2W7 whole entry): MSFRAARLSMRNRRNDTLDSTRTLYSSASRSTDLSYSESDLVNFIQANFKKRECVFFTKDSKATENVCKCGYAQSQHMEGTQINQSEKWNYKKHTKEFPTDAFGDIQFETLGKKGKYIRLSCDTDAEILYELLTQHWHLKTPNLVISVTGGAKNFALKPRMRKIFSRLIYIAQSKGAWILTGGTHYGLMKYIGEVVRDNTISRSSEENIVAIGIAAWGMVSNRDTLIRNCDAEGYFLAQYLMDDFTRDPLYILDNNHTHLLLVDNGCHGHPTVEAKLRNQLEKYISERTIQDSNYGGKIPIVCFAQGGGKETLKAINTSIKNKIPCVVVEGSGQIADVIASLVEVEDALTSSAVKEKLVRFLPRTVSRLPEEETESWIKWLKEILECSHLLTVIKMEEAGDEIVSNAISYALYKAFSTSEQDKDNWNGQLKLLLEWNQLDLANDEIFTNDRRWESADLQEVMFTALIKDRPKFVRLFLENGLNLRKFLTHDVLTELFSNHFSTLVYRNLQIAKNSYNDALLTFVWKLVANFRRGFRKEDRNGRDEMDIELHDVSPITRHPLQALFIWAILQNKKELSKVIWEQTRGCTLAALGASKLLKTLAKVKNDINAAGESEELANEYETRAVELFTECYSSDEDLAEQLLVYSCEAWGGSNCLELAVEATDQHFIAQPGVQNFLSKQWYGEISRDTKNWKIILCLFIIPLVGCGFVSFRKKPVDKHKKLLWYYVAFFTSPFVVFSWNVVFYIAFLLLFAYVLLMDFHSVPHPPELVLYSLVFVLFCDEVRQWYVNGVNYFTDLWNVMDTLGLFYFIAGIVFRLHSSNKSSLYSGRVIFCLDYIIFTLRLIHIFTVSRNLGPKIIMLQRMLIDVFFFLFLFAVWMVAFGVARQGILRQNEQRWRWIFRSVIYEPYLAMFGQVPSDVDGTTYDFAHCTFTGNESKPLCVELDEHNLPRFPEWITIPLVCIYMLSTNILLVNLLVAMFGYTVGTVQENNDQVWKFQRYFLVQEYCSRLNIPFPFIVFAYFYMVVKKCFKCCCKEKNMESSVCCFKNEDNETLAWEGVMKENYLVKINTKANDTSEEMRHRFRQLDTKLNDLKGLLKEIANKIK

Structure (SMILES) | IC50
Cc1nc2ccc(C(F)(F)F)nc2n1-c1ccc(C(=O)CN2C(=O)NC3(CCC(F)(F)CC3)C2=O)cc1 [Example 5-31] | < 100 nM
Cc1nc2cccnc2n1-c1ccc(C(=O)CN2C(=O)NC3(CCCCCC3)C2=O)cc1 [Example 5-32] | < 100 nM
Cc1nc2cccnc2n1-c1ccc(C(=O)CN2C(=O)NC3(CCCCC3)C2=O)cn1 [Example 5-33] | < 100 nM
O=C(CN1C(=O)NC2(CCC(F)(F)CC2)C1=O)c1ccc(Sc2ncccn2)cc1 [Example 5-39] | < 100 nM
O=C(CN1C(=O)NC2(CCCCC2)C1=O)c1ccc(Oc2cccnn2)cc1 [Example 5-40] | < 500 nM
O=C(CN1C(=O)NC2(CCCCCC2)C1=O)c1ccc(Oc2cccnn2)cc1 [Example 5-41] | < 100 nM
O=C(CN1C(=O)NC2(CCC(F)(F)CC2)C1=O)c1ccc(-c2ccnc3[nH]ncc23)cc1 [Example 6-1] | < 10 nM
O=C(CN1C(=O)NC2(CCC(F)(F)CC2)C1=O)c1ccc(-c2ncnc3ccccc23)cc1 [Example 6-2] | < 10 nM
N#Cc1nccnc1-c1ccc(C(=O)CN2C(=O)NC3(CCC(F)(F)CC3)C2=O)cc1 [Example 6-3] | < 10 nM
O=C(CN1C(=O)NC2(CCC(F)(F)CC2)C1=O)c1ccc(-c2cncc3[nH]ncc23)cc1 [Example 6-4] | < 10 nM
O=C(CN1C(=O)NC2(CCC(F)(F)CC2)C1=O)c1ccc(-c2cncc3[nH]ccc23)cc1 [Example 6-5] | < 10 nM
O=C(CN1C(=O)NC2(CCC(F)(F)CC2)C1=O)c1ccc(-c2nccnc2CO)cc1 [Example 6-6] | < 10 nM
Cc1cnc(C)c(-c2ccc(C(=O)CN3C(=O)NC4(CCC(F)(F)CC4)C3=O)cc2)n1 [Example 6-7] | < 10 nM
O=C(CN1C(=O)NC2(CCC(F)(F)CC2)C1=O)c1ccc(-c2ncnc3[nH]ccc23)cc1 [Example 6-8] | < 10 nM
O=C(CN1C(=O)NC2(CCC(F)(F)CC2)C1=O)c1ccc(-c2cccnc2CO)cc1 [Example 6-9] | < 100 nM
O=C(CN1C(=O)NC2(CCC(F)(F)CC2)C1=O)c1ccc(-c2cnccc2CO)cc1 [Example 6-10] | < 100 nM
Cc1nccnc1-c1ccc(C(=O)CN2C(=O)NC3(CCC(F)(F)CC3)C2=O)cc1 [Example 6-11] | < 100 nM
Cc1ncsc1-c1ccc(C(=O)CN2C(=O)NC3(CCC(F)(F)CC3)C2=O)cc1 [Example 6-12] | < 100 nM
O=C(CN1C(=O)NC2(CCC(F)(F)CC2)C1=O)c1ccc(-c2ccnc3[nH]ccc23)cc1 [Example 6-13] | < 100 nM
Cc1ccnnc1-c1ccc(C(=O)CN2C(=O)NC3(CCC(F)(F)CC3)C2=O)cc1 [Example 6-14] | < 100 nM
N#Cc1ncccc1-c1ccc(C(=O)CN2C(=O)NC3(CCC(F)(F)CC3)C2=O)cc1 [Example 6-15] | < 100 nM

Structure (SMILES) | IC50
N#Cc1ccncc1-c1ccc(C(=O)CN2C(=O)NC3(CCC(F)(F)CC3)C2=O)cc1 [Example 6-16] | < 100 nM
O=C(CN1C(=O)NC2(CCC(F)(F)CC2)C1=O)c1ccc(-c2cccnc2OCCO)cc1 [Example 6-17] | < 100 nM
O=C(CN1C(=O)NC2(CCC(F)(F)CC2)C1=O)c1ccc(-c2nncc3ccccc23)cc1 [Example 6-18] | < 100 nM
O=C(CN1C(=O)NC2(CCC(F)(F)CC2)C1=O)c1ccc(-c2ccccc2O)cc1 [Example 6-19] | < 100 nM
O=C(CN1C(=O)NC2(CCC(F)(F)CC2)C1=O)c1ccc(-c2nccc3[nH]ncc23)cc1 [Example 6-20] | < 100 nM
O=C(CN1C(=O)NC2(CCC(F)(F)CC2)C1=O)c1ccc(-c2cccc3nccn23)cc1 [Example 6-21] | < 100 nM
O=C(CN1C(=O)NC2(CCC(F)(F)CC2)C1=O)c1ccc(-c2ncccc2Cl)cc1 [Example 6-22] | < 100 nM
O=C(CN1C(=O)NC2(CCC(F)(F)CC2)C1=O)c1ccc(-c2ncnc3[nH]ncc23)cc1 [Example 6-23] | < 100 nM
O=C(CN1C(=O)NC2(CCC(F)(F)CC2)C1=O)c1ccc(-c2nccc3[nH]ccc23)cc1 [Example 6-24] | < 100 nM
O=C(CN1C(=O)NC2(CCC(F)(F)CC2)C1=O)c1ccc(-c2nccc3ccccc23)cc1 [Example 6-25] | < 100 nM
N#Cc1cccc(-c2ccc(C(=O)CN3C(=O)NC4(CCC(F)(F)CC4)C3=O)cc2)n1 [Example 6-26] | < 100 nM
O=C(CN1C(=O)NC2(CCC(F)(F)CC2)C1=O)c1ccc(-c2ncccc2F)cc1 [Example 6-27] | < 100 nM
Cc1cncc(-c2ccc(C(=O)CN3C(=O)NC4(CCC(F)(F)CC4)C3=O)cc2)n1 [Example 6-28] | < 100 nM
Cc1ccsc1-c1ccc(C(=O)CN2C(=O)NC3(CCC(F)(F)CC3)C2=O)cc1 [Example 6-29] | < 100 nM
O=C(CN1C(=O)NC2(CCC(F)(F)CC2)C1=O)c1ccc(-c2cccc3nccnc23)cc1 [Example 6-30] | < 100 nM
O=C(CN1C(=O)NC2(CCC(F)(F)CC2)C1=O)c1ccc(-c2nccc3occc23)cc1 [Example 6-31] | < 100 nM
O=C(CN1C(=O)NC2(CCC(F)(F)CC2)C1=O)c1ccc(-c2n[nH]c3ccccc23)cc1 [Example 6-32] | < 100 nM
Cc1nc(-c2ccc(C(=O)CN3C(=O)NC4(CCC(F)(F)CC4)C3=O)cc2)c2ccccc2n1 [Example 6-33] | < 100 nM
Cc1ncncc1-c1ccc(C(=O)CN2C(=O)NC3(CCC(F)(F)CC3)C2=O)cc1 [Example 6-34] | < 100 nM
O=C(CN1C(=O)NC2(CCC(F)(F)CC2)C1=O)c1ccc(-c2cccc(O)c2)cc1 [Example 6-35] | < 100 nM
O=C(CN1C(=O)NC2(CCC(F)(F)CC2)C1=O)c1ccc(-c2ncccc2CO)cc1 [Example 6-36] | < 100 nM

Structure (SMILES) | IC50
O=C(CN1C(=O)NC2(CCC(F)(F)CC2)C1=O)c1ccc(-c2nccc3cnccc23)cc1 [Example 6-37] | < 100 nM
O=C(CN1C(=O)NC2(CCC(F)(F)CC2)C1=O)c1ccc(-c2cccn3ccnc23)cc1 [Example 6-38] | < 100 nM
CCOc1ncccc1-c1ccc(C(=O)CN2C(=O)NC3(CCC(F)(F)CC3)C2=O)cc1 [Example 6-39] | < 100 nM
CC(O)c1ccccc1-c1ccc(C(=O)CN2C(=O)NC3(CCC(F)(F)CC3)C2=O)cc1 (centres unmarked) [Example 6-40] | < 100 nM
O=C(CN1C(=O)NC2(CCC(F)(F)CC2)C1=O)c1ccc(-c2cnccc2C(F)(F)F)cc1 [Example 6-41] | < 100 nM
O=C1Cc2c(-c3ccc(C(=O)CN4C(=O)NC5(CCC(F)(F)CC5)C4=O)cc3)ccnc2N1 [Example 6-42] | < 500 nM
N#Cc1ccnnc1-c1ccc(C(=O)CN2C(=O)NC3(CCC(F)(F)CC3)C2=O)cc1 [Example 6-43] | < 100 nM
O=C(CN1C(=O)NC2(CCC(F)(F)CC2)C1=O)c1ccc(-c2nccc3ccncc23)cc1 [Example 6-44] | < 100 nM
O=C(CN1C(=O)NC2(CCC(F)(F)CC2)C1=O)c1ccc(-c2cccc3ncncc23)cc1 [Example 6-45] | < 100 nM
O=C(CN1C(=O)NC2(CCC(F)(F)CC2)C1=O)c1ccc(-c2cccnc2NCCO)cc1 [Example 6-46] | < 500 nM
O=C(CN1C(=O)NC2(CCC(F)(F)CC2)C1=O)c1ccc(-c2cccnc2N2CC(O)C2)cc1 [Example 6-48] | < 500 nM
O=C(CN1C(=O)NC2(CCC(F)(F)CC2)C1=O)c1ccc(-c2cccc3c2CC(O)C3)cc1 (centres unmarked) [Example 6-49] | < 500 nM
O=C(CN1C(=O)NC2(CCC(F)(F)CC2)C1=O)c1ccc(-c2cccc3c2C(O)CC3)cc1 (centres unmarked) [Example 6-50] | < 500 nM
O=C(CN1C(=O)NC2(CCC(F)(F)CC2)C1=O)c1ccc(-c2ncnc3cnccc23)cc1 [Example 6-51] | < 500 nM
O=C1CCc2c(cccc2-c2ccc(C(=O)CN3C(=O)NC4(CCC(F)(F)CC4)C3=O)cc2)N1 [Example 6-52] | < 500 nM
CS(=O)(=O)c1ccccc1-c1ccc(C(=O)CN2C(=O)NC3(CCC(F)(F)CC3)C2=O)cc1 [Example 6-53] | < 500 nM
O=C(CN1C(=O)NC2(CCC(F)(F)CC2)C1=O)c1ccc(-c2nccnc2OCCO)cc1 [Example 6-54, 8,8-difluoro-3-(2-(4-(3-(2-hydroxyethoxy)pyrazin-2-yl)phenyl)-2-oxoethyl)-1,3-diazaspiro[4.5]decane-2,4-dione] | < 100 nM
NCc1ccccc1-c1ccc(C(=O)CN2C(=O)NC3(CCC(F)(F)CC3)C2=O)cc1 [Example 6-55, 3-(2-(2′-(aminomethyl)-[1,1′-biphenyl]-4-yl)-2-oxoethyl)-8,8-difluoro-1,3-diazaspiro[4.5]decane-2,4-dione hydrochloride] | < 100 nM
NCc1ncccc1-c1ccc(C(=O)CN2C(=O)NC3(CCC(F)(F)CC3)C2=O)cc1 [Example 6-56, 3-(2-(4-(2-(aminomethyl)pyridin-3-yl)phenyl)-2-oxoethyl)-8,8-difluoro-1,3-diazaspiro[4.5]decane-2,4-dione] | < 500 nM
CC(=O)NCc1ncccc1-c1ccc(C(=O)CN2C(=O)NC3(CCC(F)(F)CC3)C2=O)cc1 [Example 6-57, N-((3-(4-(2-(8,8-difluoro-2,4-dioxo-1,3-diazaspiro[4.5]decan-3-yl)acetyl)phenyl)pyridin-2-yl)methyl)acetamide] | < 100 nM
